# In patent US8889668B2, “Oxadiazole diaryl compounds” (Merck Serono SA, priority 2007, dated 2014):
# Tests used:
# [1] = target: T1, S1P1 (Homo sapiens (Human), UniProt P21453); assay: Receptor binding assay, [33P]sphingosine 1-phosphate, membranes from CHO cells expressing S1P1; conditions: [33P]S1P 25 pM, SPA
# Procedure: (§1) Receptor binding assay: Membranes were prepared from CHO cells expressing S1P1 or S1P3 for use in ligand and […] binding studies. Cells were suspended in 50 mM TRIS, pH 7.4, 2 mM EDTA, 250 mM Sucrose (buffer A) and 1× Complete protease inhibitor cocktail (Roche), and disrupted at 4° C. by nitrogen decompression using a cell disruption bomb (Parr Instrument). Following centrifugation at 1000 RPM for 10 min at 4° C., the supernatant was suspended in buffer A and centrifuged again at 19000 RPM for 60 min at 4° C. The pellet was then suspended in 10 mM HEPES, pH 7.4, 1 mM EDTA, 250 mM Sucrose (Buffer B), and 1× Complete EDTA-free protease inhibitor cocktail and homogenized using a potter. Membranes were flash frozen in liquid nitrogen and stored at −80° C. [33P]sphingosine 1-phosphate (3000 Ci/mmol; American Radiolabeled Chemicals, Inc.) was added to test compounds in DMSO. Membranes and WGA SPA beads (GE Healthcare) were added to give a final volume of 100 μl in 96-well plates with assay concentrations of 25 pM or 10 pM [33P]sphingosine 1-phosphate (respectively for S1P1 or S1P3), 50 mM HEPES, pH 7.5, 5 mM MgCl2, 100 mM NaCl, 0.4% fatty acid-free BSA, 1-5 μg/well of proteins and 100 μg/well of WGA SPA beads. Binding was performed for 60 min at room temperature on a shaker and bound radioactivity was measured on a PerkinElmer 1450 MicroBeta counter. Specific binding was calculated by subtracting remaining radioactivity in the presence of 1000-fold excess of unlabeled S1P. Binding data were analyzed using the GraphPad Prism program.
# [2] = target: S1P3 (Homo sapiens (Human), UniProt Q99500); assay: 35S-GTPγS binding, membranes from CHO cells expressing S1P3; assay type: biochemical; conditions: 60 min 30° C., read-out: S1P3 GTPgs EC50
# Procedure: as §1
# Measurements of ^35S-GTPγS Binding: Membranes (1 to 10 μg protein) prepared as described above, were incubated in 96-well Scintiplates (PerkinElmer) with test compounds diluted in DMSO, in 180 μl of 20 mM HEPES, pH 7.4, 10 mM MgCl2, 2 μg/well Saponin, 0.2% fatty acid free BSA (Assay buffer), 140 mM NaCl and 1.7 μM GDP. The assay was initiated with the addition of 20 μl of 1.5 nM [35S]-GTPγS (1100 Ci/mmol; GE Healthcare) in assay buffer. After 60 min incubation at 30° C. on a shaker, plates were centrifuged for 10 min at 2000 RPM. Supernatant was discarded and membrane bound radioactivity was measured on a PerkinElmer 1450 MicroBeta counter. Triplicate samples were averaged and expressed as % response relative to S1P activation in absence of compound (n=2).
# [3] = target: T1, S1P1; assay: 35S-GTPγS binding, membranes from CHO cells expressing S1P1; assay type: biochemical; conditions: 60 min 30° C., read-out: S1P1 GTPgS EC50
# T1 sequence (P21453 whole entry, species assumed): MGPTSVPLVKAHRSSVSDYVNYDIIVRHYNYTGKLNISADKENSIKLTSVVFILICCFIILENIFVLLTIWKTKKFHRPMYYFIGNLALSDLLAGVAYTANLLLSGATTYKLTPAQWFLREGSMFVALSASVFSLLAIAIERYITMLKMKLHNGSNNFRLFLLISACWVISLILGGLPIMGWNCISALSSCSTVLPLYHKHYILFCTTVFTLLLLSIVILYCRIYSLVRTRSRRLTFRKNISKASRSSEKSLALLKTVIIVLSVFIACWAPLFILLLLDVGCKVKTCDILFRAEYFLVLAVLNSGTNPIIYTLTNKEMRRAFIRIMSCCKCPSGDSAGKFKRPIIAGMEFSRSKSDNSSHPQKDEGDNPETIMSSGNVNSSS
# Chain of S1P3 (Q99500 whole entry, species assumed): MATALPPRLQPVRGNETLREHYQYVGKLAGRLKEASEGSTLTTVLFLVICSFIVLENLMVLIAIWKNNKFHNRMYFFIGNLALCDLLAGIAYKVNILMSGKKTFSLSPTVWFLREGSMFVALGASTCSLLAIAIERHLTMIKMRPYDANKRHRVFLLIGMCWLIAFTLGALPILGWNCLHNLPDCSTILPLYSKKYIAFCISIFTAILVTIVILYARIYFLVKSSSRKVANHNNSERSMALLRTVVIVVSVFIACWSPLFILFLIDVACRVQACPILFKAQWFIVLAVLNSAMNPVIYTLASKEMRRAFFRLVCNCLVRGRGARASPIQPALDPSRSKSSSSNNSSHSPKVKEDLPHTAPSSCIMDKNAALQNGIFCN
SMILES,Ki [1] [nM],EC50 [2] [µM],EC50 [3] [nM]
"FC(F)(F)Oc1ccccc1-c1noc(-c2ccc(N3CCCCC3)cc2)n1 [Compound I3, 1-(4-{3-[2-(trifluoromethoxy)phenyl]-1,2,4-oxadiazol-5-yl}phenyl)piperidine]",652,,1780
"COc1ccccc1-c1noc(-c2ccc(N3CCCCC3)cc2)n1 [Compound I4, 1-{4-[3-(2-methoxyphenyl)-1,2,4-oxadiazol-5-yl]phenyl}piperidine]",1070,,3600
"COc1ccccc1-c1noc(-c2ccc(N3CCCCC3C)c([N+](=O)[O-])c2)n1 (centres unmarked) [Compound I9, 1-{4-[3-(2-methoxyphenyl)-1,2,4-oxadiazol-5-yl]-2-nitrophenyl}-2-methylpiperidine]",,5.41,7
"COc1ccccc1-c1noc(-c2ccc(-c3ccccc3C)c(C)c2)n1 [Compound I20, 5-(2,2′-dimethylbiphenyl-4-yl)-3-(2-methoxyphenyl)-1,2,4-oxadiazole]",16,3.21,44
"COc1ccccc1-c1noc(-c2ccc(-c3cscc3C)c(C)c2)n1 [Compound I25, 3-(2-methoxyphenyl)-5-[3-methyl-4-(4-methyl-3-thienyl)phenyl]-1,2,4-oxadiazole]",3,5.49,9
"COc1ccccc1-c1noc(-c2ccc(C3CCCCC3)cc2)n1 [Compound I27, 5-(4-cyclohexylphenyl)-3-(2-methoxyphenyl)-1,2,4-oxadiazole]",20,> 30,66
"COc1ccccc1-c1noc(-c2ccc(CC(C)C)cc2)n1 [Compound I28, 5-(4-isobutylphenyl)-3-(2-methoxyphenyl)-1,2,4-oxadiazole]",91,> 30,162
"FC(F)(F)Oc1ccccc1-c1noc(-c2ccc(C3CCCCC3)cc2)n1 [Compound I29, 5-(4-cyclohexylphenyl)-3-[2-(trifluoromethoxy)phenyl]-1,2,4-oxadiazole]",25,,59
"COc1ccc(F)cc1-c1noc(-c2ccc(-c3ccccc3C)c(C)c2)n1 [Compound I33, 5-(2,2′-dimethylbiphenyl-4-yl)-3-(5-fluoro-2-methoxyphenyl)-1,2,4-oxadiazole]",43,,6
"COc1ccccc1-c1ccc(-c2nc(-c3ccccc3OC(F)(F)F)no2)cc1C [Compound I45, 5-(2′-methoxy-2-methylbiphenyl-4-yl)-3-[2-(trifluoromethoxy)phenyl]-1,2,4-oxadiazole]",,> 20,10
"COc1cc(-c2nc(-c3ccccc3OC(F)(F)F)no2)ccc1-c1cscc1C [Compound I54, 5-[3-methoxy-4-(4-methyl-3-thienyl)phenyl]-3-[2-(trifluoromethoxy)phenyl]-1,2,4-oxadiazole]",,> 30,13
"FC(F)(F)Oc1ccccc1-c1noc(-c2ccc(N3CCCCC3)c(C(F)(F)F)c2)n1 [Compound I61, 1-[4-{3-[2-(trifluoromethoxy)phenyl]-1,2,4-oxadiazol-5-yl}-2-(trifluoromethyl)phenyl]piperidine]",54,,4
"COc1ccc(F)cc1-c1noc(-c2cnc(N3CCCCC3C)c(C)c2)n1 (centres unmarked) [Compound I74, 5-[3-(5-fluoro-2-methoxyphenyl)-1,2,4-oxadiazol-5-yl]-3-methyl-2-(2-methylpiperidin-1-yl)pyridine]",6,,5

# Further molecules by falling EC50 [3], results first:
Ki [1] [nM],EC50 [2] [µM],EC50 [3] [nM],SMILES
18,> 30,51,"COc1ccccc1-c1noc(-c2ccc(N3CCOCC3)c([N+](=O)[O-])c2)n1 [Compound I2, 4-{4-[3-(2-methoxyphenyl)-1,2,4-oxadiazol-5-yl]-2-nitrophenyl}morpholine]"
,> 30,51,"CCOc1ccccc1-c1noc(-c2ccc(-c3ccccc3C)c(C)c2)n1 [Compound I22, 5-(2,2′-dimethylbiphenyl-4-yl)-3-(2-ethoxyphenyl)-1,2,4-oxadiazole]"
,> 30,36,"COc1ccccc1-c1noc(-c2ccc(N3CCCC(F)(F)C3)c([N+](=O)[O-])c2)n1 [Compound I12, 3,3-difluoro-1-{4-[3-(2-methoxyphenyl)-1,2,4-oxadiazol-5-yl]-2-nitrophenyl}piperidine]"
11,> 20,27,"COc1ccccc1-c1noc(-c2ccc(N3CCCCC3)c([N+](=O)[O-])c2)n1 [Compound I1, 1-{4-[3-(2-methoxyphenyl)-1,2,4-oxadiazol-5-yl]-2-nitrophenyl}piperidine]"
,> 30,24,"CCOc1ccccc1-c1noc(-c2ccc(N3CCCCC3C)c([N+](=O)[O-])c2)n1 (centres unmarked) [Compound I10, 1-{4-[3-(2-ethoxyphenyl)-1,2,4-oxadiazol-5-yl]-2-nitrophenyl}-2-methylpiperidine]"
,0.27,24,"COc1ccc(F)cc1-c1noc(-c2ccc(N3CCCCC3C)c(N)c2)n1 (centres unmarked) [Compound I69, 5-[3-(5-fluoro-2-methoxyphenyl)-1,2,4-oxadiazol-5-yl]-2-(2-methylpiperidin-1-yl)aniline]"
,> 30,18,"CC1CCCCN1c1ccc(-c2nc(-c3ccccc3OC(F)(F)F)no2)cc1[N+](=O)[O-] (centres unmarked) [Compound I8, 2-methyl-1-(2-nitro-4-{3-[2-(trifluoromethoxy)phenyl]-1,2,4-oxadiazol-5-yl}phenyl)piperidine]"
,> 30,18,"FC(F)(F)Oc1ccccc1-c1noc(-c2ccc(N3CCOCC3)c(C(F)(F)F)c2)n1 [Compound I19, 4-[4-{3-[2-(trifluoromethoxy)phenyl]-1,2,4-oxadiazol-5-yl}-2-(trifluoromethyl)phenyl]morpholine]"
,> 20,14,"COc1cc(-c2nc(-c3ccccc3OC(F)(F)F)no2)ccc1-c1ccccc1C [Compound I53, 5-(2-methoxy-2′-methylbiphenyl-4-yl)-3-[2-(trifluoromethoxy)phenyl]-1,2,4-oxadiazole]"
16,> 30,10,"Cc1cc(-c2nc(-c3ccccc3OC(F)(F)F)no2)ccc1-c1ccccc1C(F)(F)F [Compound I23, 5-[2-methyl-2′-(trifluoromethyl)biphenyl-4-yl]-3-[2-(trifluoromethoxy)phenyl]-1,2,4-oxadiazole]"
,2.1,10,"Cc1ccccc1-c1ccc(-c2nc(-c3ccccc3OC(F)(F)F)no2)cc1[N+](=O)[O-] [Compound I36, 5-(2′-methyl-2-nitrobiphenyl-4-yl)-3-[2-(trifluoromethoxy)phenyl]-1,2,4-oxadiazole]"
2,5.05,9,"COc1ccccc1-c1noc(-c2ccc(-c3ccccc3C)c([N+](=O)[O-])c2)n1 [Compound I26, 3-(2-methoxyphenyl)-5-(2′-methyl-2-nitrobiphenyl-4-yl)-1,2,4-oxadiazole]"
7,> 30,6,"COc1ccccc1-c1noc(-c2ccc(N3CCOCC3)c(C(F)(F)F)c2)n1 [Compound I18, 4-[4-[3-(2-methoxyphenyl)-1,2,4-oxadiazol-5-yl]-2-(trifluoromethyl)phenyl]morpholine]"
8,> 30,4,"Cc1ccccc1-c1ccc(-c2nc(-c3ccccc3OC(F)(F)F)no2)cc1C [Compound I21, 5-(2,2′-dimethylbiphenyl-4-yl)-3-[2-(trifluoromethoxy)phenyl]-1,2,4-oxadiazole]"
8,,4,"COc1ccccc1-c1noc(-c2ccc(-c3ccccc3C)c(C(F)(F)F)c2)n1 [Compound I62, 3-(2-methoxyphenyl)-5-[2′-methyl-2-(trifluoromethyl)biphenyl-4-yl]-1,2,4-oxadiazole]"
4,,2,"Cc1cscc1-c1ccc(-c2nc(-c3ccccc3OC(F)(F)F)no2)cc1C(F)(F)F [Compound I70, 5-[4-(4-methyl-3-thienyl)-3-(trifluoromethyl)phenyl]-3-[2-(trifluoromethoxy)phenyl]-1,2,4-oxadiazole]"
